Laboratory results as given in patent publication US5140047A, “Lipoxygenase inhibitors” (SmithKline Beecham Corporation, priority 1991, dated 1992).
Like-named read-outs stand apart in the source and are kept apart here. Each block holds one compound with its values, some of them ahead of it.

Columns and labels:
[1] = target: T1, 5-lipoxygenase (5-LO) isolated from extracts of RBL-1 cells (Rattus norvegicus, UniProt P12527); experiment: 5-LO activity, RBL-1 supernatant, oxygen consumption; assay type: biochemical; settings: RBL-1 supernatant 5-LO enzyme; 10 uM arachidonic acid, 20° C.; read-out: 5-LO IC-50
T1 construct: isolated from extracts of RBL-1 cells; endogenous in cells; host or cells: RBL-1 cells (cell extract / supernatant)
T1 sequence (P12527 1-673): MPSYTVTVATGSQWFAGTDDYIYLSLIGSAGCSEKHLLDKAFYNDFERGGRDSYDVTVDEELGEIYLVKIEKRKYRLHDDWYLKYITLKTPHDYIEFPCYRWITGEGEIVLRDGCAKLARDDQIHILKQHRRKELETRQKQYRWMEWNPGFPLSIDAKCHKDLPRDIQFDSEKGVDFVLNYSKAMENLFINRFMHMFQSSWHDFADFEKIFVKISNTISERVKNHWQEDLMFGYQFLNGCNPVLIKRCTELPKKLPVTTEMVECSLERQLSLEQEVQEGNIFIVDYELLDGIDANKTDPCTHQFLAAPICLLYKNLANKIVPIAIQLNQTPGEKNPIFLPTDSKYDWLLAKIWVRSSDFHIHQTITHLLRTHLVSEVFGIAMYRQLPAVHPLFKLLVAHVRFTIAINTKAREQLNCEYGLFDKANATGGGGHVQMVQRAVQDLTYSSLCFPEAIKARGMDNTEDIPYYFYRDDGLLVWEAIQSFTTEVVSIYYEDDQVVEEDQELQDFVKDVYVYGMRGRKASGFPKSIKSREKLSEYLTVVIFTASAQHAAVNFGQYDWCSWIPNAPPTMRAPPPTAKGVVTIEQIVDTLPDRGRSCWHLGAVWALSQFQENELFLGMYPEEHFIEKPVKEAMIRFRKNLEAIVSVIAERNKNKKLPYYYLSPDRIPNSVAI
Method: The 5-lipoxygenase (5-LO) was isolated from extracts of RBL-1 cells. The assay for assessing inhibition of the 5-LO activity was a continuous assay which monitored the consumption of oxygen (O2). The cell extract (100 ug) was preincubated with the inhibitor or its vehicle in 25 mM BisTris buffer (pH 7.0) that contained 1 mM EDTA, 1 mM ATP, 150 mM NaCl and 5% ethylene glycol for 2 minutes at 20° C. (total volume 2.99 ml). Arachidonic acid (10 uM) and CaCl2 (2 mM) were added to start the reaction, and the decrease in O2 concentration followed with time using a Clark-type electrode and the Yellow Spring O2 monitor (type 53) (Yellow Springs, Ohio). The optimum velocity was calculated from the progress curves. All compounds were dissolved in ethanol with the final concentration of ethanol being 1% in the assay. Drug-induced effects on enzyme activities are described as the concentration of drug causing a 50% inhibition of oxygen consumption (IC50).

[2] = test system: eicosanoid production in human whole blood; experiment: Inhibition of eicosanoid production following calcium ionophore stimulation in human whole blood; assay type: cell-based; settings: calcium ionophore 60 μM
Method: The eicosanoids, which include the 5-lipoxygenase product LTB4, transLTB4, 20-hydroxyLTB4, 5-HETE, and the 12-lipoxygenase product are extracted from the whole blood following A23187 calcium ionophore stimulation. The extracts are separated by reverse phase high pressure liquid chromatography and quantified by absorbance methods.
Venous human blood is collected into polypropylene tubes containing 1% heparin. The blood is then aliquoted into 4.5 ml volumes and preincubated at 37° C. for 6 minutes in polypropylene tubes (15 ml size). Compound or carrier (10 μL dimethylsulfoxide) is added 6 minutes prior to stimulation. Calcium ionophore (0.5 ml) is added, and the blood incubated for 6 minutes. Prostaglandin B2 (1 nmole) is added, and the blood extracted as described below.
The samples are centrifuged at 1000×g for 15 minutes at 5° C. The plasma is collected, and one volume of acetonitrile is added to the plasma. This suspension is then centrifuged at 1000×g for 15 minutes at 5° C. The supernatant is collected and diluted with 1.5 volumes of chilled aqueous 1% formic acid. This mixture is loaded onto a preconditioned J. T. Baker C18 SPE cartridge (Phillipsburg, N.J.) at a flow rate of 1-2 ml/minute. (The cartridge is preconditioned according to manufacture's recommendations.) The absorbed sample is washed in the following order with three (3) ml each of (i) aqueous 1% formic acid: 1% triethylamine; and (ii) petroleum ether.
The eicosanoids are eluted in 3 ml of methyl formate. The solvent is removed under vacuum. The sample is resuspended in […] of 50% acetonitrile buffered with ammonium acetate. […]
The eicosanoids in the samples are verified by their retention times and their UV absorbance spectra. The peaks are quantified with reference to the internal standard and their absorbance response at their maximum absorbance wavelength.

[3] = test system: human monocyte LTB4 production; experiment: LTB4 production from human monocytes in vitro (A23187 stimulated, RIA); assay type: cell-based
Method: (§1) Human monocytes were prepared from leukosource packs supplied by the American Red Cross. The leukosource packs were fractionated by a two-step procedure described by F. Colatta et al. (J. Immunology 132: 936, 1984) that uses sedimentation on Ficoll followed by sedimentation on Percoll. The monocyte fraction that results from this technique was composed of 80-90% monocytes with the remainder being neutrophils and lymphocytes. In addition, significant number of platelets are present.
(§2) The monocytes (10^6 cells) were placed into polypropylene tubes and used as a suspended culture. The assay buffer consisted of RPMI 1640 buffer, 2 mM glutamine, 2.5 mM HEPES and 2 mM CaCl2 (total volume 0.475 ml). Compounds (0.005 ml) were added in DMSO, and the cells were preincubated for 10 minutes at 37° C. with constant agitation. A23187 (2 uM) was used to stimulate the cells. After an additional 10 minutes, the buffer was collected by centrifugation (2500×g for 15 minutes), and stored at -70° C. until assayed. LTB4 production was measured by radioimmunassay which was performed according to the manufacturer's (Advanced Magnetics, Boston, Mass.) instructions. PGE2 was determined using an RIA kit supplied by New England Nuclear (Boston, Mass.).

[4] = test system: human monocyte PGE2 production (cyclooxygenase activity); experiment: PGE2 production from human monocytes in vitro (A23187 stimulated, RIA); assay type: cell-based; settings: for IC50: Homo sapiens, Monocyte
Method: as §1, §2

[5] = test system: 5-LO activity (LTB4) in mouse whole blood; experiment: Ex vivo mouse blood eicosanoid assay (LTB4, A23187 stimulated); assay type: in vivo, mouse (CD1); settings: po, per os; for inhibition at 10 mg/kg: read-out: ex vivo, % inh., heading: ex vivo, % inh., 30 min pre-treatment, mouse whole blood, A23187 60 uM
Method: In experiments when mice were used they were CD1 mice obtained from Charles River Breeding Laboratories, and within a single experiment the mice were age-matched. Their weight range was from 25 to 42 g. The test groups generally contained 3-6 animals.
Mice were pre-treated per os with vehicle or a test compound (dissolved in dimethylacetamide and diluted 1 to 10 with sesame oil) 30 minutes prior to removal of blood. The 5-lipoxygenase product LTB4, was extracted from whole blood following A23187 stimulation. Aliquots of pooled heparinized mouse blood (1 ml each aliquot) from male CD1 mice (Charles River) were placed into 4 ml polypropylene tubes. The tubes were preincubated for about five minutes at 37° C. A23187 (60 uM) was added to stimulate eicosanoid production. Several aliquots of blood were not stimulated and, thus, provided background levels for eicosanoid production. All tubes were incubated for about 30 minutes at 37° C. The blood samples were centrifuged at 400×g for about 15 minutes, and the plasma recovered for extraction. One volume of chilled acetonitrile was added to all at 5° C. The supernatants were recovered and diluted with 1% formic acid: 1% triethylamine to achieve a final concentration of 20% acetonitrile. These supernatants were then loaded onto the extraction cartridge that had been conditioned according to the Manufacturer's instructions (Solid Phase Extraction Columns, J. T. Baker, C18 3 ml size). The samples were washed with 3 ml of 1% formic acid: 1% triethylamine, air dried, and then washed with 3 ml of petroleum ether. After air drying again, the samples were eluted with methyl formate. The eluents were concentrated under vacuum. The concentrates were resuspended in 30% acetonitrile buffered with 50 mM ammonium acetate ([…]). The recovery of LTB4 was 60%. The 300 ul concentrates were assayed by radioreceptor assay for LTB4 by labortatory protocol.
Mean values for groups were calculated and percent inhibition was determined between the vehicle control mean and test group. […]

myocardial infarction = settings: dogs, Mullane et al. 1984; cited from earlier work
[6] = test system: LTB4 and 5-HETE production; settings: Stenson et al. 1982; cited from earlier work
rheumatoid arthritis = settings: preliminary observation, Neumann et al. 1983; cited from earlier work
psoriasis = settings: Allen et al. 1983; cited from earlier work
lipoxygenase = settings: cited from earlier work

Compound: NC1=NN(c2cccc(C(F)(F)F)c2)CC1 [BW755-C]
area of infarction following coronary occlusion (myocardial infarction): reduced

Compound: O=C(O)c1cc(/N=N/c2ccc(S(=O)(=O)Nc3ccccn3)cc2)ccc1O [Sulfasalazine]
inhibition of LTB4 and 5-HETE production in vitro [6]: inhibit LTB4 and 5-HETE production in vitro
efficacy in rheumatoid arthritic patients (rheumatoid arthritis): efficacy, including remission

Compound: CC(C(=O)O)c1ccc2oc(-c3ccc(Cl)cc3)nc2c1 (stereo not shown) [benoxaprofen]
effect on psoriasis (psoriasis): promising effect
in vitro lipoxygenase inhibitory activity (lipoxygenase): in vitro lipoxygenase inhibitory activity

More lines, main results first:

IC50 [1]: 8 µM
IC50 [2]: > 10 µM
Compound: NC(=O)N(O)C1COc2ccc3ccccc3c21 (stereo not shown) [Example 3]

IC50 [1]: 4.2 µM
IC50 ([3]; A23187 2 uM, Table 1, read-out: human monocyte-IC50, LTB4): 1.6 µM
IC50 ([3]; read-out: IC50, production of LTB4 in the human monocyte): 1.6 µM
IC50 ([4]; A23187 2 uM, Table 1, read-out: human monocyte-IC50, PGE2): > 30 µM
IC50 ([4]; read-out: IC50, production of the prostaglandin PGE2 (human monocyte)): > 30 µM
cyclooxygenase activity as indicated by production of PGE2 ([4]; result in words): did not inhibit cyclooxygenase activity
IC50 [2]: > 10 µM
Compound: NC(=O)N(O)C1CCCc2c1ccc1ccccc21 (stereo not shown) [Example 1, N-1-(1,2,3,4-Tetrahydrophenanthrenyl)-N-hydroxyurea]
ED50 ([5]; 0.5 h, mouse whole blood ex vivo, A23187, linear regression, read-out: ED50 (inhibition of 5-LO activity ex vivo)): 2.5 mg/kg
inhibition at 10 mg/kg [5]: 86%

IC50 [1]: 5.6 µM
IC50 [2]: > 10 µM
Compound: NC(=O)N(O)C1COc2c1ccc1ccccc21 (stereo not shown) [Example 2]
inhibition at 10 mg/kg [5]: 92%
